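Five concentrations, 48 hours, 96-well plates. GI50 = concentration required for 50% inhibition of growth.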 Activity calls are given as the source filed them. Rule as the data show it: active = GI50 up to about 1.1 µM and inactive = higher.
Columns and labels:
Assay in all cases: NCI-60 cell line screen, 48 h
HOP-92 = tested on: HOP-92
DMS-273 = tested on: DMS-273
SK-OV-3 = tested on: SK-OV-3
DLD-1 = tested on: DLD-1
M19-MEL = tested on: M19-MEL
UACC-257 = tested on: UACC-257
K562 = tested on: K562
LXFL 529 = tested on: LXFL 529
SF-539 = tested on: SF-539
ACHN = tested on: ACHN
OVCAR-4 = tested on: OVCAR-4
HCT-15 = tested on: HCT-15
HOP-62 = tested on: HOP-62
KM12 = tested on: KM12
CAKI-1 = tested on: CAKI-1
SF-268 = tested on: SF-268
OVCAR-8 = tested on: OVCAR-8
UO-31 = tested on: UO-31
SN12C = tested on: SN12C
IGROV-1 = tested on: IGROV-1
OVCAR-5 = tested on: OVCAR-5
SR = tested on: SR
Malme-3M = tested on: Malme-3M
SK-MEL-2 = tested on: SK-MEL-2
NCI-H522 = tested on: NCI-H522
HOP-18 = tested on: HOP-18
M14 = tested on: M14
NCI-H23 = tested on: NCI-H23
RXF 393 = tested on: RXF 393
A498 = tested on: A498
HL-60 = tested on: HL-60
OVCAR-3 = tested on: OVCAR-3
RXF 631 = tested on: RXF 631
LOX IMVI = tested on: LOX IMVI
HCT-116 = tested on: HCT-116
EKVX = tested on: EKVX
DMS-114 = tested on: DMS-114
MOLT-4 = tested on: MOLT-4
SK-MEL-5 = tested on: SK-MEL-5
HCC 2998 = tested on: HCC 2998
SNB-78 = tested on: SNB-78
KM-20L2 = tested on: KM-20L2
SW-620 = tested on: SW-620
SK-MEL-28 = tested on: SK-MEL-28
RPMI-8226 = tested on: RPMI-8226
SNB-75 = tested on: SNB-75
SF-295 = tested on: SF-295
A549 = tested on: A549
NCI-H460 = tested on: NCI-H460
COLO 205 = tested on: COLO 205
XF498 = tested on: XF498
UACC-62 = tested on: UACC-62
786-0 = tested on: 786-0
U-251 = tested on: U-251
SNB-19 = tested on: SNB-19
TK-10 = tested on: TK-10
CCRF-CEM = tested on: CCRF-CEM
HT-29 = tested on: HT-29
NCI-H226 = tested on: NCI-H226

## O=c1[nH]cc(OCC(F)(F)F)c(=O)[nH]1
HOP-92
  GI50: > 100 µM (inactive)
DMS-273
  GI50: > 100 µM (inactive)
SK-OV-3
  GI50: > 100 µM (inactive)
DLD-1
  GI50: > 100 µM (inactive)
M19-MEL
  GI50: > 100 µM (inactive)
UACC-257
  GI50: > 100 µM (inactive)
K562
  GI50: > 100 µM (inactive)
LXFL 529
  GI50: > 100 µM (inactive)
SF-539
  GI50: > 100 µM (inactive)
ACHN
  GI50: > 100 µM (inactive)
OVCAR-4
  GI50: > 100 µM (inactive)
HCT-15
  GI50: > 100 µM
HOP-62
  GI50: > 100 µM (inactive)
KM12
  GI50: > 100 µM (inactive)
CAKI-1
  GI50: > 100 µM (inactive)
SF-268
  GI50: > 100 µM (inactive)
OVCAR-8
  GI50: > 100 µM (inactive)
UO-31
  GI50: > 100 µM (inactive)
SN12C
  GI50: > 100 µM (inactive)
IGROV-1
  GI50: > 100 µM (inactive)
OVCAR-5
  GI50: > 100 µM (inactive)
SR
  GI50: > 100 µM (inactive)
Malme-3M
  GI50: > 100 µM (inactive)
SK-MEL-2
  GI50: > 100 µM (inactive)
NCI-H522
  GI50: > 100 µM (inactive)
HOP-18
  GI50: > 100 µM (inactive)
M14
  GI50: > 100 µM (inactive)
NCI-H23
  GI50: > 100 µM (inactive)
RXF 393
  GI50: > 100 µM (inactive)
A498
  GI50: > 100 µM (inactive)
HL-60
  GI50: > 100 µM (inactive)
OVCAR-3
  GI50: > 100 µM (inactive)
RXF 631
  GI50: > 100 µM (inactive)
LOX IMVI
  GI50: > 100 µM (inactive)
HCT-116
  GI50: > 100 µM (inactive)
EKVX
  GI50: > 100 µM (inactive)
DMS-114
  GI50: > 100 µM (inactive)
MOLT-4
  GI50: > 100 µM (inactive)
SK-MEL-5
  GI50: > 100 µM (inactive)
HCC 2998
  GI50: > 100 µM (inactive)
SNB-78
  GI50: > 100 µM (inactive)
KM-20L2
  GI50: > 100 µM (inactive)
SW-620
  GI50: > 100 µM (inactive)
SK-MEL-28
  GI50: > 100 µM (inactive)
RPMI-8226
  GI50: > 100 µM (inactive)
SNB-75
  GI50: > 100 µM (inactive)
SF-295
  GI50: > 100 µM (inactive)
A549
  GI50: > 100 µM (inactive)
NCI-H460
  GI50: > 100 µM (inactive)
COLO 205
  GI50: > 100 µM (inactive)
XF498
  GI50: > 100 µM (inactive)
UACC-62
  GI50: > 100 µM (inactive)
786-0
  GI50: > 100 µM (inactive)
U-251
  GI50: > 100 µM (inactive)
SNB-19
  GI50: > 100 µM (inactive)
TK-10
  GI50: > 100 µM (inactive)
CCRF-CEM
  GI50: > 100 µM (inactive)
HT-29
  GI50: > 100 µM (inactive)

## CC1=NOC(=O)/C1=C/c1ccccc1O
HOP-92
  GI50: > 100 µM (inactive)
DMS-273
  GI50: > 100 µM (inactive)
SK-OV-3
  GI50: > 100 µM (inactive)
DLD-1
  GI50: > 100 µM (inactive)
M19-MEL
  GI50: > 100 µM (inactive)
UACC-257
  GI50: > 100 µM (inactive)
K562
  GI50: > 100 µM (inactive)
LXFL 529
  GI50: > 100 µM (inactive)
SF-539
  GI50: > 100 µM (inactive)
ACHN
  GI50: > 100 µM (inactive)
OVCAR-4
  GI50: > 100 µM (inactive)
HCT-15
  GI50: > 100 µM
HOP-62
  GI50: > 100 µM (inactive)
KM12
  GI50: > 100 µM (inactive)
CAKI-1
  GI50: > 100 µM (inactive)
SF-268
  GI50: > 100 µM (inactive)
OVCAR-8
  GI50: > 100 µM (inactive)
UO-31
  GI50: > 100 µM (inactive)
SN12C
  GI50: > 100 µM (inactive)
IGROV-1
  GI50: > 100 µM (inactive)
OVCAR-5
  GI50: > 100 µM (inactive)
SR
  GI50: > 100 µM (inactive)
Malme-3M
  GI50: > 100 µM (inactive)
SK-MEL-2
  GI50: > 100 µM (inactive)
NCI-H522
  GI50: > 100 µM (inactive)
HOP-18
  GI50: > 100 µM (inactive)
M14
  GI50: > 100 µM (inactive)
NCI-H23
  GI50: > 100 µM (inactive)
HL-60
  GI50: > 100 µM (inactive)
OVCAR-3
  GI50: > 100 µM (inactive)
RXF 631
  GI50: > 100 µM (inactive)
LOX IMVI
  GI50: > 100 µM (inactive)
HCT-116
  GI50: > 100 µM (inactive)
EKVX
  GI50: > 100 µM (inactive)
DMS-114
  GI50: > 100 µM (inactive)
MOLT-4
  GI50: > 100 µM (inactive)
SK-MEL-5
  GI50: > 100 µM (inactive)
NCI-H226
  GI50: > 100 µM (inactive)
HCC 2998
  GI50: > 100 µM (inactive)
SNB-78
  GI50: > 100 µM (inactive)
KM-20L2
  GI50: > 100 µM (inactive)
SW-620
  GI50: 20.4 µM (inactive)
SK-MEL-28
  GI50: > 100 µM (inactive)
SNB-75
  GI50: > 100 µM (inactive)
SF-295
  GI50: > 100 µM (inactive)
A549
  GI50: > 100 µM (inactive)
NCI-H460
  GI50: > 100 µM (inactive)
COLO 205
  GI50: > 100 µM (inactive)
XF498
  GI50: > 100 µM (inactive)
UACC-62
  GI50: > 100 µM (inactive)
786-0
  GI50: > 100 µM (inactive)
U-251
  GI50: > 100 µM (inactive)
SNB-19
  GI50: > 100 µM (inactive)
TK-10
  GI50: > 100 µM (inactive)
CCRF-CEM
  GI50: > 100 µM (inactive)
HT-29
  GI50: > 100 µM (inactive)

— ChEMBL document CHEMBL1201862, “PubChem BioAssay data set” (2004)
